# Data as given in ChEMBL document CHEMBL1201862, “PubChem BioAssay data set” (2004).
#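 Five compound concentrations were applied to cells in 96-well plates for 48 hours; endpoints were derived by simple linear interpolation of the resulting dose-response curve. GI50: concentration for 50% inhibition of growth.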 Calls of active or inactive are those of the source. No stated cut-off is given here; in the data, active = GI50 up to about 1.1 µM and inactive = higher.
# Columns and labels:
# Experiment in all cases: NCI anticancer screen, dose series, 48 h
# LOX IMVI = test system: LOX IMVI
# A549 = test system: A549
# OVCAR-3 = test system: OVCAR-3
# SK-MEL-5 = test system: SK-MEL-5
# KM12 = test system: KM12
# SF-268 = test system: SF-268
# NCI-H460 = test system: NCI-H460
# EKVX = test system: EKVX
# UACC-62 = test system: UACC-62
# MOLT-4 = test system: MOLT-4
# UO-31 = test system: UO-31
# K562 = test system: K562
# OVCAR-8 = test system: OVCAR-8
# HCT-15 = test system: HCT-15
# SNB-19 = test system: SNB-19
# Malme-3M = test system: Malme-3M
# HL-60 = test system: HL-60
# HT-29 = test system: HT-29
# SF-539 = test system: SF-539
# UACC-257 = test system: UACC-257
SMILES,GI50 (LOX IMVI),GI50 (A549),GI50 (OVCAR-3),GI50 (SK-MEL-5),GI50 (KM12),GI50 (SF-268),GI50 (NCI-H460),GI50 (EKVX),GI50 (UACC-62),GI50 (MOLT-4),GI50 (UO-31),GI50 (K562),GI50 (OVCAR-8),GI50 (HCT-15) [µM],GI50 (SNB-19),GI50 (Malme-3M),GI50 (HL-60),GI50 (HT-29),GI50 (SF-539),GI50 (UACC-257)
O=C1OC(c2ccc(O)c(F)c2)(c2ccc(O)c(F)c2)c2cccc3cccc1c23,> 25 µM (inactive),> 25 µM (inactive),5.9 µM (inactive),> 25 µM (inactive),> 25 µM (inactive),> 25 µM (inactive),> 25 µM (inactive),5.12 µM (inactive),17.5 µM (inactive),5.35 µM (inactive),> 25 µM (inactive),14.8 µM (inactive),> 25 µM (inactive),> 25,> 25 µM (inactive),> 25 µM (inactive),5.57 µM (inactive),> 25 µM (inactive),> 25 µM (inactive),> 25 µM (inactive)
COCCOCOc1ccc(OCc2ccccc2)cc1,> 100 µM (inactive),> 100 µM (inactive),> 100 µM (inactive),35 µM (inactive),> 100 µM (inactive),> 100 µM (inactive),> 100 µM (inactive),> 55.7 µM (inactive),> 100 µM (inactive),34 µM (inactive),> 100 µM (inactive),64.9 µM (inactive),> 100 µM (inactive),> 100,> 100 µM (inactive),> 100 µM (inactive),22.5 µM (inactive),> 100 µM (inactive),> 100 µM (inactive),> 69.7 µM (inactive)
COc1cc2c(cc1Oc1ccc(OC)c3c1CC1c4c(cc(OC)c(OC)c4-3)CCN1C)CC1c3c(cc(OC)c(OC)c3-2)CCN1C (stereo not given),0.234 µM (active),11.9 µM (inactive),4.95 µM (inactive),1.64 µM (inactive),2.35 µM (inactive),2.33 µM (inactive),1.7 µM (inactive),3.18 µM (inactive),1.97 µM (inactive),1.25 µM (inactive),3.88 µM (inactive),1.39 µM (inactive),5.3 µM (inactive),2.02,5.69 µM (inactive),1.85 µM (inactive),0.968 µM (active),0.35 µM (active),1.72 µM (inactive),1.65 µM (inactive)
COc1cc2c(cc1OC)C(C1(O)CCCCC1)NCC2 (stereo not given),> 100 µM (inactive),–,> 100 µM (inactive),> 100 µM (inactive),> 100 µM (inactive),> 100 µM (inactive),> 100 µM (inactive),> 100 µM (inactive),> 100 µM (inactive),> 100 µM (inactive),> 100 µM (inactive),> 100 µM (inactive),> 100 µM (inactive),> 100,–,> 100 µM (inactive),> 100 µM (inactive),> 100 µM (inactive),–,> 100 µM (inactive)
COc1ccc(-c2nnc(-c3ccncc3)o2)cc1,> 100 µM (inactive),> 100 µM (inactive),> 100 µM (inactive),> 100 µM (inactive),–,> 100 µM (inactive),–,> 100 µM (inactive),> 100 µM (inactive),> 100 µM (inactive),> 100 µM (inactive),> 100 µM (inactive),> 100 µM (inactive),> 100,78.7 µM (inactive),> 100 µM (inactive),> 100 µM (inactive),> 100 µM (inactive),> 100 µM (inactive),> 100 µM (inactive)
COc1cc([N+](=O)[O-])ccc1NC(=O)c1cccc([N+](=O)[O-])c1O,22.2 µM (inactive),21.8 µM (inactive),29.4 µM (inactive),6.46 µM (inactive),29.5 µM (inactive),32.5 µM (inactive),27.7 µM (inactive),29.1 µM (inactive),9.2 µM (inactive),30.9 µM (inactive),16.2 µM (inactive),20.8 µM (inactive),29 µM (inactive),18.1,41.5 µM (inactive),7.67 µM (inactive),19.9 µM (inactive),25.5 µM (inactive),23.1 µM (inactive),17.8 µM (inactive)
Cc1ccccc1-c1nc2c(C(=O)NCCN(C)C)cccc2[nH]1,38.3 µM (inactive),39.4 µM (inactive),65.6 µM (inactive),21.7 µM (inactive),52.8 µM (inactive),50.7 µM (inactive),30.2 µM (inactive),> 100 µM (inactive),40.3 µM (inactive),27 µM (inactive),20 µM (inactive),20.9 µM (inactive),42.8 µM (inactive),43.8,48.6 µM (inactive),30.5 µM (inactive),26.5 µM (inactive),31.8 µM (inactive),41.4 µM (inactive),39.8 µM (inactive)
